Results from PubChem BioAssay AID330 (DTP/NCI, 2004).
Where “and” joins values, the source holds several entries; their conditions need not be identical. Equal values may be shown once. Inconclusive results and toxic doses are left out.

System: P388 leukemia ip, CD2F1 mice, survival T/C
Experiment: NCI In Vivo Anticancer Drug Screen. Data for tumor model P388 Leukemia (intraperitoneal) in CD2F1 (CDF1) mice
Conditions: endpoint: median survival time, higher = longer survival
Summary of the method: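 Mice carrying the transplanted tumor received test compound or vehicle. Survival was recorded in each group, and the value is the treated-group measurement divided by that of the vehicle-treated control group.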

[1] = dose: 25.0 mg/kg/injection, schedule: Q01DX009 (ip), vehicle: water
[2] = dose: 100.0 mg/kg/injection, schedule: Q01DX009 (ip), vehicle: water
[3] = dose: 50.0 mg/kg/injection, schedule: Q01DX005 (ip), vehicle: saline with Tween-80
[4] = dose: 25.0 mg/kg/injection, schedule: Q01DX009 (ip), vehicle: Klucel (hydroxypropylcellulose) (HPC)
[5] = dose: 6.25 mg/kg/injection, schedule: Q01DX009 (ip), vehicle: other
[6] = dose: 12.5 mg/kg/injection, schedule: Q01DX009 (ip), vehicle: other
[7] = dose: 12.5 mg/kg/injection, schedule: Q01DX005 (ip), vehicle: Klucel (hydroxypropylcellulose) (HPC)
[8] = dose: 25.0 mg/kg/injection, schedule: Q01DX005 (ip), vehicle: Klucel (hydroxypropylcellulose) (HPC)
[9] = dose: 50.0 mg/kg/injection, schedule: Q01DX005 (ip), vehicle: Klucel (hydroxypropylcellulose) (HPC)
[10] = dose: 50.0 mg/kg/injection, schedule: Q01DX009 (ip), vehicle: saline
[11] = dose: 50.0 mg/kg/injection, schedule: Q01DX009 (ip), vehicle: Klucel (hydroxypropylcellulose) (HPC)
[12] = dose: 100.0 mg/kg/injection, schedule: Q01DX005 (ip), vehicle: Klucel (hydroxypropylcellulose) (HPC)
[13] = dose: 100.0 mg/kg/injection, schedule: Q01DX009 (ip), vehicle: Klucel (hydroxypropylcellulose) (HPC)
[14] = dose: 200.0 mg/kg/injection, schedule: Q01DX005 (ip), vehicle: Klucel (hydroxypropylcellulose) (HPC)
[15] = dose: 200.0 mg/kg/injection, schedule: Q01DX009 (ip), vehicle: Klucel (hydroxypropylcellulose) (HPC)
[16] = dose: 50.0 mg/kg/injection, schedule: Q01DX009 (ip), vehicle: saline with Tween-80
[17] = dose: 100.0 mg/kg/injection, schedule: Q01DX009 (ip), vehicle: saline with Tween-80
[18] = dose: 25.0 mg/kg/injection, schedule: Q01DX009 (ip), vehicle: saline with Tween-80

With `CC(C)(C)OP(=O)(O)OC(C)(C)C` the T/C [1] was 103 % of control, the T/C (dose: 50.0 mg/kg/injection, schedule: Q01DX009 (ip), vehicle: water) was 100 % of control and the T/C [2] was 107 % of control. For the same compound, the T/C (dose: 200.0 mg/kg/injection, schedule: Q01DX009 (ip), vehicle: water) was 107 % of control and the T/C (dose: 400.0 mg/kg/injection, schedule: Q01DX009 (ip), vehicle: water) was 112 % of control.
`C=C1CCN(c2ccc(C)cc2)C1=O` was tested, and the T/C (dose: 4.0 mg/kg/injection, schedule: Q01DX009 (ip), vehicle: saline + alcohol) was 100 % of control, the T/C (dose: 8.0 mg/kg/injection, schedule: Q01DX009 (ip), vehicle: saline + alcohol) was 100 % of control and the T/C (dose: 16.0 mg/kg/injection, schedule: Q01DX009 (ip), vehicle: saline + alcohol) was 96 % of control. The T/C (dose: 64.0 mg/kg/injection, schedule: Q01DX009 (ip), vehicle: saline + alcohol) was 94 % of control.
For `CCOC(=O)c1cc(-c2ccccc2)c(=O)c(OC)nc1-c1ccccc1`, the T/C (dose: 25.0 mg/kg/injection, schedule: Q01DX005 (ip), vehicle: saline with Tween-80) was 108 % of control and the T/C [3] was 118 % of control.
In the case of `O=C(N/N=C\c1ccc(N(CCCl)CCCl)cc1)c1cccnc1`, the T/C (dose: 12.5 mg/kg/injection, schedule: Q01DX009 (ip), vehicle: Klucel (hydroxypropylcellulose) (HPC)) is reported as 107 % of control and the T/C [4] is reported as 107 % of control.
For `Cc1ccnc(N)c1N`, the T/C (dose: 3.13 mg/kg/injection, schedule: Q01DX009 (ip), vehicle: other) was 89 % of control, the T/C [5] was 96 % of control and the T/C [6] was 109 % of control.
With `O=[N+]([O-])c1ccc(-c2cn3nc(-c4ccccc4)c(-c4ccccc4)nc3n2)cc1` the T/C [7] was 110 % of control, the T/C [8] was 98 % of control and the T/C [9] was 108 % of control and 93 % of control.
`CC1(C)OC2(c3ccccc3)N(c3ccc([N+](=O)[O-])cc3)N=C(c3ccccc3)N2c2ccccc21` (configuration not stated) was tested, and the T/C (dose: 100.0 mg/kg/injection, schedule: Q01DX001 (ip), vehicle: saline with Tween-80) was 89 % of control, the T/C (dose: 200.0 mg/kg/injection, schedule: Q01DX001 (ip), vehicle: saline with Tween-80) was 89 % of control and the T/C (dose: 400.0 mg/kg/injection, schedule: Q01DX001 (ip), vehicle: saline with Tween-80) was 88 % of control.
In the case of `Fc1cccc2c(SCCCCCSc3c4ccccc4nc4c(F)cccc34)c3ccccc3nc12`, the T/C (dose: 60.0 mg/kg/injection, schedule: Q01DX005 (ip), vehicle: Klucel (hydroxypropylcellulose) (HPC)) is reported as 93 % of control and the T/C (dose: 120.0 mg/kg/injection, schedule: Q01DX005 (ip), vehicle: Klucel (hydroxypropylcellulose) (HPC)) is reported as 89 % of control.
In the case of `CCOC(=O)CC1(C)OCCO1`, the T/C [10] is reported as 98 % of control, the T/C (dose: 100.0 mg/kg/injection, schedule: Q01DX009 (ip), vehicle: saline) is reported as 99 % of control and the T/C (dose: 200.0 mg/kg/injection, schedule: Q01DX009 (ip), vehicle: saline) is reported as 99 % of control. For the same compound, the T/C (dose: 400.0 mg/kg/injection, schedule: Q01DX009 (ip), vehicle: saline) was 101 % of control.
For `COC1C(OC(N)=O)C(O)C(Oc2ccc3c(O)c(NC(=O)c4ccc(O)c(CC=C(C)C)c4)c(=O)oc3c2C)OC1(C)C` (configuration not stated), the T/C [4] was 100 % of control, the T/C [9] was 109 % of control and the T/C [11] was 95 % of control. The T/C [12] was 106 % of control, the T/C [13] was 100 % of control and the T/C [14] was 109 % of control. The T/C [15] was 103 % of control.
For `COc1cc2c(cc1OC)/C(=N/N=C1\CCCc3cc(OC)c(OC)cc31)CCC2`, the T/C [5] was 93 % of control, the T/C (dose: 6.25 mg/kg/injection, schedule: Q01DX009 (ip), vehicle: water) was 98 % of control and the T/C [6] was 92 % of control. For the same compound, the T/C (dose: 12.5 mg/kg/injection, schedule: Q01DX009 (ip), vehicle: water) was 86 % of control, the T/C (dose: 25.0 mg/kg/injection, schedule: Q01DX009 (ip), vehicle: other) was 92 % of control and the T/C [1] was 86 % of control. For the same compound, the T/C (dose: 50.0 mg/kg/injection, schedule: Q01DX009 (ip), vehicle: other) was 90 % of control, the T/C (dose: 100.0 mg/kg/injection, schedule: Q01DX009 (ip), vehicle: other) was 88 % of control and the T/C [2] was 91 % of control.
For `CCOC(=O)c1ccc(NC(CCC(C#N)(CCC(=NC(C)(C)C)Nc2ccc(C(=O)OCC)cc2)C(=O)OCC)=NC(C)(C)C)cc1` (configuration not stated), the T/C [16] was 95 % of control, the T/C [17] was 95 % of control and the T/C (dose: 200.0 mg/kg/injection, schedule: Q01DX009 (ip), vehicle: saline with Tween-80) was 95 % of control.
In the case of `CN(C)CCCNc1nc(-c2cccc(C(Cl)(Cl)Cl)c2)nc(C(Cl)(Cl)Cl)n1`, the T/C [18] is reported as 109 % of control and the T/C [16] is reported as 111 % of control.
With `CCOc1cccc(/C=N/NC(=O)C(N)Cc2ccc(O)cc2)c1O` (configuration not stated) the T/C [3] was 99 % of control, the T/C (dose: 100.0 mg/kg/injection, schedule: Q01DX005 (ip), vehicle: saline with Tween-80) was 99 % of control and the T/C (dose: 200.0 mg/kg/injection, schedule: Q01DX005 (ip), vehicle: saline with Tween-80) was 99 % of control.
`Cc1c(-c2ccccc2)sc(/N=C/c2cc(Br)cc(Br)c2O)c1C#N` was tested, and the T/C (dose: 12.5 mg/kg/injection, schedule: Q01DX009 (ip), vehicle: saline with Tween-80) was 99 % of control, the T/C [18] was 98 % of control and the T/C [16] was 100 % of control. The T/C [17] was 99 % of control.
For `O=C(Nc1ccc(NC(=O)c2ccc(C3=NCCCN3)cc2)cc1)c1ccc(C2=NCCCN2)cc1`, the T/C (dose: 12.5 mg/kg/injection, schedule: Q01DX009 (ip), vehicle: saline) was 168 % of control, the T/C (dose: 12.5 mg/kg/injection, schedule: Q04DX003 (ip), vehicle: saline with Tween-80) was 118 % of control and the T/C (dose: 25.0 mg/kg/injection, schedule: Q01DX009 (ip), vehicle: saline) was 250 % of control. For the same compound, the T/C [10] was 163 % of control.
In the case of `CCOC(=O)/C=C1\COc2nc(N)[nH]c(=O)c2N1`, the T/C [7] is reported as 93 % of control, the T/C [8] is reported as 91 % of control and the T/C [9] is reported as 89 % of control. The T/C [12] was 94 % of control and the T/C [14] was 91 % of control.
For `O=C(O)C1=COC(OC2OC(CO)C(O)C(O)C2O)C2C(CO)=CCC12` (configuration not stated), the T/C (dose: 5.0 mg/kg/injection, schedule: Q01DX009 (ip), vehicle: saline with Tween-80) was 99 % of control and 108 % of control, the T/C (dose: 10.0 mg/kg/injection, schedule: Q01DX009 (ip), vehicle: saline with Tween-80) was 108 % of control and 96 % of control and the T/C (dose: 20.0 mg/kg/injection, schedule: Q01DX009 (ip), vehicle: saline with Tween-80) was 99 % of control and 104 % of control. The T/C (dose: 40.0 mg/kg/injection, schedule: Q01DX009 (ip), vehicle: saline with Tween-80) was 95 % of control and the T/C (dose: 80.0 mg/kg/injection, schedule: Q01DX009 (ip), vehicle: saline with Tween-80) was 99 % of control.
`COc1cc(CN2CCN(CCO)CC2)c(O)c(CN2CCN(CCO)CC2)c1` was tested, and the T/C (dose: 60.0 mg/kg/injection, schedule: Q01DX005 (ip), vehicle: saline) was 108 % of control, the T/C (dose: 120.0 mg/kg/injection, schedule: Q01DX005 (ip), vehicle: saline) was 108 % of control and the T/C (dose: 240.0 mg/kg/injection, schedule: Q01DX005 (ip), vehicle: saline) was 102 % of control.
`CNC(=O)OCc1nc(SC)n(C)c1COC(=O)NC` was tested, and the T/C (dose: 25.0 mg/kg/injection, schedule: Q01DX005 (ip), vehicle: saline) was 160 % of control, the T/C (dose: 30.0 mg/kg/injection, schedule: Q01DX005 (ip), vehicle: saline) was 166 % of control and 172 % of control and 187 % of control and the T/C (dose: 34.0 mg/kg/injection, schedule: Q01DX005 (ip), vehicle: saline) was 158 % of control and 164 % of control and 173 % of control. For the same compound, the T/C (dose: 50.0 mg/kg/injection, schedule: Q01DX005 (ip), vehicle: saline) was 184 % of control and 193 % of control, the T/C (dose: 51.0 mg/kg/injection, schedule: Q01DX005 (ip), vehicle: saline) was 186 % of control and 196 % of control and 200 % of control and the T/C (dose: 77.0 mg/kg/injection, schedule: Q01DX005 (ip), vehicle: saline) was 188 % of control. The T/C (dose: 100.0 mg/kg/injection, schedule: Q01DX005 (ip), vehicle: saline) was 236 % of control.
`O=C(CNN1C(=O)CSC1=Nc1cccc2ccccc12)c1cccc2c1Nc1ccccc1S2` was tested, and the T/C [11] was 102 % of control, the T/C [13] was 102 % of control and the T/C [15] was 98 % of control.
With `CC1=CCC(C(C)C)C=C1` (configuration not stated) the T/C [17] was 100 % of control, the T/C (dose: 100.0 mg/kg/injection, schedule: Q04DX003 (ip), vehicle: saline) was 105 % of control and the T/C (dose: 200.0 mg/kg/injection, schedule: Q04DX003 (ip), vehicle: saline) was 100 % of control. The T/C (dose: 400.0 mg/kg/injection, schedule: Q04DX003 (ip), vehicle: saline) was 105 % of control.
